Measured values reported in paper PMC8388125, “Kinetic and Structural Characterization of the Self-Labeling Protein Tags HaloTag7, SNAP-tag, and CLIP-tag” (Biochemistry, 2021).
Numbering of substitutions follows the chain as printed. “And” between values parts separate entries of the source, which are not always exact repeats. Equal values may be shown once.

Columns and labels:
[1] = target: T1, SNAP^C145A (Homo sapiens, UniProt P16455, A127T/A154D/C145A/C150Q/C62A/G131K/G132T/G153L/K125A/K32I/L33F/M134L/N157G/Q115S/Q116H/R128A/R135S/S151G/S152D/S159E); assay: Affinity of SNAP^C145A for BG and CP fluorescent substrates by fluorescence polarization; type: binding
T1 construct: made in house; host or cells: E. coli BL21(DE3)-pLysS
T1 sequence (P16455 1-182 K32I/L33F/C62A/Q115S/Q116H/K125A/A127T/R128A/G131K/G132T/M134L/R135S/C145A/C150Q/S151G/S152D/G153L/A154D/N157G/S159E limits assumed): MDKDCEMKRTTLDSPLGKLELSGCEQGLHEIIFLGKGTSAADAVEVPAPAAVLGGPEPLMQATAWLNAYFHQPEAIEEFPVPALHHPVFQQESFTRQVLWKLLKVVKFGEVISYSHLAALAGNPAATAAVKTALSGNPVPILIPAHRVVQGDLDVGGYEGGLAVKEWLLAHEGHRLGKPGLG
Description: Binding affinities of SNAP^C145A and SNAPf^C145A for BG-Alexa488, CP-Alexa488, BG-fluorescein, CP-fluorescein, BG-MAP555, BG-JF549, BG-TMR(6), BG-TMR(5), CP-TMR, BG-CPY(6), BG-CPY(5), CP-CPY, BG-SiR, CP-SiR, BG-JF646, BG-Atto565, BG-Atto590, BG-sulfo-Cy3, BG-Cy3, BG-sulfo-Cy5, and BG-Cy5 were determined by fluorescence polarization in a manner analogous to that for HT7 affinities for CA substrates described above with the following changes. Fluorescent substrates were titrated at a final concentration of 50 nM against protein concentrations ranging from 0 to 250 μM at room temperature using 0.1 g/L BSA and 1 mM DTT (SNAP-FP buffer). The FP value of each dye fully reacted with the native SNAP/SNAPf was used to improve fitting of the upper plateau of the curves by adding an extra data point at a protein concentration of 0.005 M.

[2] = target: T2, hAGT (human O^6-alkylguanine-DNA alkyltransferase) (Homo sapiens, UniProt P16455); assay: hAGT labeling kinetics via microplate reader (FP over time); type: biochemical
T2 construct: StrepTag-II (N); enterokinase cleavage site (N); His10 (C); made in house; host or cells: E. coli BL21(DE3)-pLysS
T2 sequence (P16455 1-207): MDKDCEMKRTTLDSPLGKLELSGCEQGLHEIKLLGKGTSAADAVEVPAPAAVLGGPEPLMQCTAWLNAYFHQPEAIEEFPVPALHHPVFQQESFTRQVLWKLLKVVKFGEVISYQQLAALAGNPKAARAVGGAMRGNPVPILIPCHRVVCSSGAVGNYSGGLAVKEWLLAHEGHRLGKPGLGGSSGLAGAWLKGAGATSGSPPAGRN
Description: (§1) Labeling kinetics of SNAP and CLIP substrates were measured by recording FP over time using a microplate reader in a manner analogous to that of HT7 labeling kinetics described above with the following changes. The fluorescent substrate concentration was fixed to 20 nM, and protein concentrations were varied from 15 to 900 nM. Measurements were performed in SNAP-FP buffer.
(§2) Kinetic data from microplate reader assays were fitted to a simplified kinetic model (eq 13) described by differential eqs 14–16 using DynaFit. The dead time of the measurements and baseline FP value were put in as fixed parameters. Standard deviations (normal distribution verified) and confidence intervals of fitted parameters were estimated with the Monte Carlo method with standard settings (N = 1000, 5% worst fits discarded). In the case of BG, CP, and BC kinetics, the substrate concentration was fitted by DynaFit to rule out quantification errors of the BG, CP, or BC fluorophores. Accurate fitting of the concentration was ensured by including conditions under which protein is limiting and no maximum FP value was reached.

[3] = target: T3, CLIP-tag (CLIP) (Homo sapiens, UniProt P16455, A121V/A127T/A154D/C150Q/C62A/G131N/G132T/G153S/K125A/K32I/L33F/M134L/M60I/N157P/Q115S/Q116H/R128A/R135D/S151G/S152D/S159L/Y114E); assay: CLIP labeling kinetics via microplate reader (FP over time); type: biochemical; settings: CLIP cross-reactivity
T3 construct: made in house; host or cells: E. coli BL21(DE3)-pLysS
T3 sequence (P16455 1-182 K32I/L33F/M60I/C62A/Y114E/Q115S/Q116H/A121V/K125A/A127T/R128A/G131N/G132T/M134L/R135D/C150Q/S151G/S152D/G153S/A154D/N157P/S159L limits assumed): T1 sequence (P16455 1-182 K32I/L33F/C62A/Q115S/Q116H/K125A/A127T/R128A/G131K/G132T/M134L/R135S/C145A/C150Q/S151G/S152D/G153L/A154D/N157G/S159E limits assumed) with M60I, Y114E, A121V, K131N, S135D, A145C, L153S, G157P, E159L
Description: as §1, §2

[4] = target: T4, SNAP-tag (SNAP) (Homo sapiens, UniProt P16455, A127T/A154D/C150Q/C62A/G131K/G132T/G153L/K125A/K32I/L33F/M134L/N157G/Q115S/Q116H/R128A/R135S/S151G/S152D/S159E); assay: SNAP labeling kinetics via microplate reader (FP over time); type: biochemical; settings: SNAP, plate reader, kinetic model 1
T4 construct: made in house; host or cells: E. coli BL21(DE3)-pLysS
T4 sequence (P16455 1-182 K32I/L33F/C62A/Q115S/Q116H/K125A/A127T/R128A/G131K/G132T/M134L/R135S/C150Q/S151G/S152D/G153L/A154D/N157G/S159E limits assumed): T1 sequence (P16455 1-182 K32I/L33F/C62A/Q115S/Q116H/K125A/A127T/R128A/G131K/G132T/M134L/R135S/C145A/C150Q/S151G/S152D/G153L/A154D/N157G/S159E limits assumed) with A145C
Description: as §1, §2

[5] = target: T4, SNAP-tag (SNAP); assay: SNAP labeling kinetics via stopped flow (fluorescence anisotropy); type: biochemical; settings: model 2
Description: Labeling kinetics of SNAP with BG-TMR were measured via stopped-flow in a manner analogous to that for HT7 kinetics described above; however, the final substrate concentration was fixed at 2 μM, and the protein concentration was varied from 1.875 to 50 μM. The activity buffer was supplemented with 1 mM DTT.
(§3) Kinetic stopped-flow data were preprocessed using a custom R script.[36],[37] Recorded pretrigger time points were removed, and time points were adjusted to start at time zero. Values from replicates were averaged. The anisotropy of the free dye was calculated by averaging anisotropy values of the baseline measurements. Preprocessed data were fitted to a kinetic model (eqs 5 and 6) described by differential eqs 7–10 using the DynaFit software.[38] The anisotropy of the free dye and the mixing delay of the stopped-flow machine were set as fixed offset and delay parameters in DynaFit. It was assumed that the protein substrate complex and the reacted product are contributing equally to the anisotropy signal. […] Standard deviations (normal distribution verified) and confidence intervals of fitted parameters were estimated with the Monte Carlo method[39] with standard settings (N = 1000, 5% worst fits discarded). In the case of SNAP kinetics with BG-TMR, the substrate concentration was fitted by DynaFit to rule out quantification errors of the BG-quenched fluorophore. Accurate fitting of the concentration was ensured by including conditions in which protein is limiting and no maximum FP value was reached.

[6] = target: T5, HT7^D106A (Rhodococcus sp., UniProt P59336, A155T/A167V/A224E/C128F/C176G/D106A/D78G/E160K/E257K/G292T/H272N/K175M/K195N/L47V/L88M/N227D/P291S/S2A/S58T/T264A/V172T/Y273L/Y87F); assay: Affinity of HT7^D106A for CA substrates by fluorescence polarization; type: binding; settings: HT7^D106A
T5 construct: made in house; host or cells: E. coli BL21(DE3)-pLysS
T5 sequence (P59336 other isoform, or with tags, fused parts or gaps with the stated changes): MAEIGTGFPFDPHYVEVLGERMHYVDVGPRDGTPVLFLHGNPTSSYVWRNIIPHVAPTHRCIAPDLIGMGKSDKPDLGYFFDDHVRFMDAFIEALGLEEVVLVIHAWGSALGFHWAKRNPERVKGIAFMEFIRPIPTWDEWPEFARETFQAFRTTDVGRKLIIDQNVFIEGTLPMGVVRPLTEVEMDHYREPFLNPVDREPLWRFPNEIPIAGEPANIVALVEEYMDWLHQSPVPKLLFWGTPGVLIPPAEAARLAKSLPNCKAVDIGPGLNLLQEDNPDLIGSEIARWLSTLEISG
Description: Binding affinities of HT7^D106A or HOB^D106A for chloroalkane (CA) substrates were determined by fluorescence polarization (FP, eq 1) measurements using a microplate reader (Spark20M, Tecan Group AG, Männedorf, Switzerland). The fluorescent substrates (10 nM) were titrated against different protein concentrations (0–250 μM) in activity buffer supplemented with 0.5 g/L bovine serum albumin (BSA). Assays were performed in black low-volume nonbinding 384-well plates (Corning Inc., Corning, NY) with a final volume of 20 μL. Obtained FP values were averaged and fitted to a single-site binding model (eq 2) to estimate Kd values for each fluorescent substrate. The FP value of each dye fully reacted with the native HT7 was used to improve fitting of the upper plateau of the curves by adding an extra data point at a protein concentration of 0.1 M. [drawing 1] 1 where FP is the fluorescence polarization, I∥ is the fluorescence intensity parallel to the excitation light polarization, I⊥ is the fluorescence intensity perpendicular to the excitation light polarization, and G is the grating factor (G = I∥/I⊥). [drawing 2] 2 where FPmin is the fluorescence polarization of the free fluorophore (lower plateau), FPmax is the maximal fluorescence polarization of fully bound fluorophore (upper plateau), Kd is the dissociation constant, and [protein] is the protein concentration.
Free binding energies were calculated from Kd values according to eq 4: [drawing 4] 4 where ΔG is the free binding energy, R is the universal gas constant, T is the temperature, and Kd is the dissociation constant.

[7] = target: T6, HaloTag7 (HT7) (Rhodococcus sp., UniProt P59336, A155T/A167V/A224E/C128F/C176G/D78G/E160K/E257K/G292T/H272N/K175M/K195N/L47V/L88M/N227D/P291S/S2A/S58T/T264A/V172T/Y273L/Y87F); assay: HT7 labeling kinetics via stopped flow (fluorescence anisotropy); type: biochemical
T6 construct: made in house; host or cells: E. coli BL21(DE3)-pLysS
T6 sequence (P59336 other isoform, or with tags, fused parts or gaps with the stated changes): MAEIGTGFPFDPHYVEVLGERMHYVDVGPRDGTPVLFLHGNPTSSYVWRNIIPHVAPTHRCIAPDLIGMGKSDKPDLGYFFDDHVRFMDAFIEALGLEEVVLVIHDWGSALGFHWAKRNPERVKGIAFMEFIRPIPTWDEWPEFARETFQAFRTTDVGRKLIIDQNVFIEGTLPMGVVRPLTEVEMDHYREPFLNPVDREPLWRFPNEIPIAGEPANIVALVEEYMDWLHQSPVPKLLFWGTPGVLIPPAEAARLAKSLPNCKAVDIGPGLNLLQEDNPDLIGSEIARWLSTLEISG
Description: Labeling kinetics of HT7 with CA-TMR, CA-JF549, CA-CPY, CA-LIVE580, and CA-JF669 and labeling kinetics of HOB with CA-TMR were measured by recording fluorescence anisotropy changes over time using a BioLogic SFM-400 stopped-flow instrument (BioLogic Science Instruments, Claix, France) in a single-mixing configuration at 37 °C. HT7 protein and substrates in activity buffer were mixed in a 1:1 stoichiometry to reach a recordable speed for these fast reactions and to increase the information content of the traces. Concentrations were varied from 0.125 to 1 μM. The anisotropy of the free substrate was measured to obtain a baseline.
as §3

Row | fold lower Kd^C145A compared to Kd calculated from stopped-flow experiments using active SNAP ([1]; SNAP^C145A vs active SNAP) [fold] | Kd ([1]; SNAP^C145A, fluorescence polarization, room temperature) [nM] | times slower labeling of hAGT than of SNAP ([2]; hAGT vs SNAP) [times] | kapp (value ± standard deviation) ([2]; hAGT, plate reader, model 1) | times slower reaction of CLIP than with BC-TMR [3] [times] | kapp (value ± standard deviation) [4] | k2 (± S.D.) [5] | k-1 (± S.D.) [5] | SMILES | fold decrease in affinity of the 5-substituted compared to the 6-substituted rhodamine substrate [6] [fold] | Kd [7] [nM] | k2 (± S.D.) ([7]; HT7, stopped flow, model 2) | k-1 (± S.D.) ([7]; HT7, stopped flow, model 2)
1 | 3 | 680 | 130 | (3.38 ± 0.01) × 10^3 M^–1 s^–1 | 100 | (4.29 ± 0.01) × 10^5 M^–1 s^–1 | 1.24 (± 0.02) s-1 | 1.02 (± 0.03) s-1 | CN(C)c1ccc2c(-c3cc(C(=O)NCc4ccc(COc5nc(N)nc6[nH]cnc56)cc4)ccc3C(=O)[O-])c3ccc(=[N+](C)C)cc-3oc2c1 [BG-TMR] | – | – | – | –
2 | – | – | – | – | – | – | – | – | CN(C)c1ccc2c(c1)C(C)(C)C1=CC(=[N+](C)C)C=CC1=C2c1cc(C(=O)NCCOCCOCCCCCCCl)ccc1C(=O)[O-] [CA-CPY, chloroalkane-PEG-carbopyronine] | 22.7 | 46 | 9.9 s-1 and 9.86 (± 0.73) s-1 | 7.60 (± 0.98) s-1
